Patent US9469616B2, “Cyclic compounds and methods of making and using the same” (Cellceutix Corporation, priority 2011, dated 2016)
Values after ≈ are worked out from the molar mass of the structure shown.

Assays:
E. coli (25922) = test: MIC assay (Table 1); assay type: cell-based; settings: Escherichia coli, isolate 25922
E. faecalis (29212) = test: MIC assay (Table 1); assay type: cell-based; settings: Enterococcus faecalis, isolate 29212
Protocol: (§1) The compounds are screened for antimicrobial activity against a number of clinically relevant pathogens. Minimum Inhibitory Concentrations (MIC) of each of the compounds are determined using standard procedures for clinical ocular isolates of Ciprofloxacin Susceptible (CS) S. aureus (CSSA), Ciprofloxacin Resistant (CR) S. aureus (CRSA), CS S. epidermidis (CSSE), CR S. epidermidis (CRSE), St. pneumoniae (SP), St. viridans group (SV), Moraxella Species (MS) (including Moraxella catarrhalis), H. influenzae (HI), P. aeruginosa (PA), Serratia marcescens (SM), S. aureus fluoroquinolone-susceptible, S. aureus fluoroquinolone-resistant, S. epidermidis (Coagulase-negative Staphylococcus) fluoroquinolone-susceptible, S. epidermidis (Coagulase-negative Staphylococcus) fluoroquinolone-resistant, and Serratia marcescens.
(§2) On the day of testing, a 640 μg/m (1280 μg/m for Serratia marcescens and Pseudomonas aeruginosa) concentration is prepared from a 1% stock solution in 0.01% acetic acid, 0.2% BSA in polypropylene tubes.
(§3) Ten μl of diluted 10× test agents is added to each well of one row of the 96 well polypropylene plates from column 2 to column 12 (column 1 is a control for bacteria alone, with no peptide). […] The same peptide is in each of the 8 rows. One plate contains dilutions of one test agent and 8 bacterial isolates.
(§4) Ninety μl of the bacterial suspensions is dispensed in each well from column 1 to column 12. Each bacterial isolate is placed in one row of a 96 well polypropylene plate containing the test agents. The plates are placed on shaker at 15 minutes at room temperature, and then incubated at 37° C. overnight. MICs are determined visually as the lowest concentration of drug that inhibits visible bacterial growth.
(§5) Data is expressed as MIC50 in μg/ml. The bacterial isolates were as follows: E. coli (25922); S. aureus (27660); E. faecalis (29212); P. aeruginosa (10145); and K. pneumoniae (13883).

K. pneumoniae (13883) = test: MIC assay (Table 1); assay type: cell-based; settings: Klebsiella pneumoniae, isolate 13883, read-out: MIC50 K. Pnuemnoiae
Protocol: as §1, §2, §3, §4, §5

RAW 264.7 cells = test: Cytokine production in RAW 264.7 cells (ELISA); assay type: cell-based, murine

NCCCOc1cc(-c2ccc3ccc(-c4cc(OCCCN)c(OCCCN)c(OCCCN)c4)cc3c2)cc(OCCCN)c1OCCCN [Compound 116]
MIC50 (E. coli (25922)): 3.13 µg/mL (≈ 4.35 µM) | MIC50 (E. faecalis (29212)): 25 µg/mL (≈ 34.8 µM) | MIC50 (K. pneumoniae (13883)): 25 µg/mL (≈ 34.8 µM) | LPS-induced TNF production (RAW 264.7 cells; 5.0 μg/mL preincubation 1 hour, LPS 100 ng/mL 18 hours, FIG. 1B): increased | LPS-induced IL-6 production (RAW 264.7 cells; 5.0 μg/mL preincubation 1 hour, LPS 100 ng/mL 18 hours, FIG. 1C): increased | LPS-induced IL-10 production (RAW 264.7 cells; 5.0 μg/mL preincubation 1 hour, LPS 100 ng/mL 18 hours, FIG. 1D): inhibited the production of the anti-inflammatory cytokine IL 10 to background levels | TNF production (RAW 264.7 cells; 5.0 μg/mL, without LPS, FIG. 1A): induced TNF production | LPS-induced TNF production with externally added rIL-10 (RAW 264.7 cells; preincubated with mouse rIL-10 50 ng/mL, 5.0 μg/mL compound, LPS 100 ng/mL, FIG. 2): abrogation of Compound 116's capacity to enhance TNF production | TNF level with externally added rIL-10 (RAW 264.7 cells; preincubated with mouse rIL-10 50 ng/mL, 5.0 μg/mL compound, without LPS, FIG. 2): only a slight decrease in the overall TNF level
